Measurements from publication PMC9184620, “TAS1553, a small molecule subunit interaction inhibitor of ribonucleotide reductase, exhibits antitumor activity by causing DNA replication stress” (Communications Biology, 2022).
Like-named read-outs stand apart in the source and are kept apart here. Ends that are not written are not given here.

How the values were obtained:
[1] = target: T1, RNR (R1 and R2 recombinant proteins) (Homo sapiens, UniProt P23921); assay: RNR assay (formation of dCDP from CDP); type: biochemical
T1 construct: made in house; host or cells: Escherichia coli
T1 sequence (P23921 1-792): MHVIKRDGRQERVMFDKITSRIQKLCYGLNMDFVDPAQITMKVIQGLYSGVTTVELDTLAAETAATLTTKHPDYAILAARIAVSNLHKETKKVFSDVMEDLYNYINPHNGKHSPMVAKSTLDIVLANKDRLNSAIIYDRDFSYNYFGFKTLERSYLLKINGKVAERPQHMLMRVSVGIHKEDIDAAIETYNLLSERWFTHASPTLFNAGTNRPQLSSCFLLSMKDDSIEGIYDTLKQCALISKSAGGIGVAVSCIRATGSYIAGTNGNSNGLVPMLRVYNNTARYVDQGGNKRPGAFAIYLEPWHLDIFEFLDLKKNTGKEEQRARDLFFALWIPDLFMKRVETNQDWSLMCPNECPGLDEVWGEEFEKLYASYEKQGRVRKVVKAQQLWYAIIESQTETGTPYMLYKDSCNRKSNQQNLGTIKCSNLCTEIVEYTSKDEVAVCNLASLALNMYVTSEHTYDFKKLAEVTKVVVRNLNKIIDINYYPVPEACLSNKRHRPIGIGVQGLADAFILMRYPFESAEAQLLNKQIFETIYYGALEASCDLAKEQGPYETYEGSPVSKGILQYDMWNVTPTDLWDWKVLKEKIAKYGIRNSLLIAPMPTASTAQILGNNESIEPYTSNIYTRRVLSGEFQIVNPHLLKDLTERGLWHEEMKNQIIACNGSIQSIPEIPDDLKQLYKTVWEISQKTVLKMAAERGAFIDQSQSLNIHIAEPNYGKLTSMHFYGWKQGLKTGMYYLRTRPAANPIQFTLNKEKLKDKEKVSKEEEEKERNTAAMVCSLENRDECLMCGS
Procedure: The binding affinity of TAS1553 to the R1 subunit was investigated using surface plasmon resonance (SPR) binding analysis. […] Next, we evaluated the inhibitory effect of TAS1553 against the enzymatic activity of RNR, consisting of R1 and R2 recombinant proteins. RNR activity was determined by its ability to reduce cytidine diphosphate (CDP) to deoxycytidine diphosphate (dCDP), based on a previous report. […] In addition to the inhibitory effect on RNR, TAS1553 was evaluated in a Eurofins LeadProfilingScreen panel assay including 68 proteins, such as ion channels, transporters, nuclear receptors, and G protein-coupled receptors, to examine its potential adverse activity.
The inhibition of RNR activity by the test compound was evaluated by measuring the formation of dCDP from CDP, as reported previously. The assay was performed for 30 min at 37 °C in a reaction mixture composed of 50 mmol/L HEPES, 4 mmol/L magnesium acetate, 100 mmol/L KCl, 6 mmol/L DTT, 2 mmol/L ATP, 0.24 mmol/L NADPH, 10.0 µmol/L CDP, 0.1 mg/mL BSA, 8.0 µg/mL His-R1, 2.4 µg/mL His-R2, and 1% DMSO with or without test compound. The reaction was discontinued by heat treatment at 95 °C for 5 min. The amount of dCDP after the reaction was quantified by a prominence HPLC system and LabSolutions software (SHIMADZU CORPORATION). Separations were performed at 265 nm in a Shim-pack XR-ODS column of particle size 2.2 μm (100 × 3.0 mm, SHIMADZU GLC Ltd.). Overall, 5 µL of each sample was injected, and chromatography was performed at 40 °C. Mobile A was composed of 10 mmol/L potassium dihydrogenphosphate, 10 mmol/L tetrabutylammonium hydroxide, 0.25% methanol and 8 mmol/L HCl. Mobile B was composed of 50 mmol/L potassium dihydrogenphosphate, 5.6 mmol/L tetrabutylammonium hydroxide, and 30% methanol. The gradient was as follows: 52–60% B for 9 min, 60–99% B for 1 min, 99% B for 5 min, 99–52% B for 1 min, and 52% B for 5 min. The flow rate was 0.5 mL/min. The experiment was performed in triplicates. IC50 values were calculated using the SAS software package.

[2] = target: T2, human R1 (Homo sapiens, UniProt P23921); assay: Fluorescence polarization binding assay (displacement of TAMRA-labeled P7 from R1); settings: for IC50: R1 and TAMRA-labeled P7, mean ± SD, three independent experiments, read-out: IC50, fluorescent polarization binding assay
T2 construct: made in house; host or cells: Escherichia coli
T2 sequence (P23921 1-792): T1 sequence (P23921 1-792)
Source text: Fig. 1 Design and identification of the small molecule compound TAS1553 blocking the interaction between RNR subunits. a A schematic representation of the fluorescent polarization binding assay. TAMRA-labeled P7 heptapeptide was used as a probe. […] Data are presented as mean ± SD obtained from three independent experiments. c Chemical structures of compound 1 and TAS1553. d Superposition of the X-ray co-crystal structure of human RRM1 (green) with compound 1 (magenta) (PDB ID: 6L3R) to the previously determined X-ray co-crystal structure of Saccharomyces cerevisiae RNR1 (cyan) with P7 peptide (yellow) (PDB ID: 2ZLF). The residue numbers and protein surface shown here are those of hRRM1. e SPR analysis for the binding of TAS1553 to human R1 captured onto Series S Sensor Chip NTA. […] IC50 (mean ± SD) is determined from three independent experiments performed in triplicate.
TAMRA-labeled P7 peptide was obtained from Peptide Institute, Inc. to be used as a fluorescent probe in the FP binding assay. The final reaction mixture was composed of 50 mmol/L Tris-Cl (pH 8.0), 10 mmol/L DTT, 10 nmol/L TAMRA-P7, 32 ng/mL His-R1, and 1% DMSO with or without test compound. The assay was performed for 120 min at room temperature with protection from light, after which FP of each sample was measured with a PHERAstarFS. IC50 values were calculated using the SAS software package in EXSUS (CAC Croit).

[3] = target: T3, interaction between R1 and R2 (human RNR) (Homo sapiens, UniProt P23921); assay: AlphaLISA binding assay (interaction between His-R1 and GST-R2); settings: recombinant R1 and R2; mean ± SD
T3 construct: host or cells: Escherichia coli (His-R1)
T3 sequence (P23921 1-792): T1 sequence (P23921 1-792)

[4] = tested on: HCC38 xenograft; assay: Antitumor activity in mice bearing HCC38 xenografts; type: in vivo, mouse
Procedure: (§1) Next, we evaluated the antitumor activity of a high-dose administration of TAS1553 and cytarabine in rats bearing MV-4-11 xenografts. […] The rats were treated with cytarabine for 5 days at 16 and 32 mg/kg. […] In addition to the hematologic tumor, we evaluated the antitumor activity of TAS1553 in mice implanted with HCC38 cell line as a solid tumor model. […] Finally, TAS1553 was evaluated for its survival benefit in a mouse model. To achieve this, we established mice bone marrow cells harboring the human MLL-AF9 fusion gene, which is known as a driver gene for AML in humans as well as mice[48]. Mice were transplanted with the cells through the tail vein and the treatment with TAS1553 was started 11 days post-implantation.
(§2) For the subcutaneous implantation model of MV-4-11, F344/NJcl-rnu/rnu rats were irradiated with X-ray (4 Gy) to improve the efficiency of xenograft implantation. Two days after X-ray irradiation, MV-4-11 cells suspended in PBS with 50 vol% Matrigel were inoculated into the rats (2 × 10^7 cells/animal). In the mice subcutaneous implantation model, HCC38 cells suspended same as above were inoculated into male BALB/cAJcl-nu/nu mice (1 × 10^7 cells /body). The animals were randomized and administered with the compound for 14 days. Antitumor activity and body weight change were evaluated as previously reported. Dunnett test using the SAS software package in EXSUS (CAC Croit) was used to compare the tumor volume (P < 0.05).

[5] = tested on: MV-4-11 xenograft; assay: Antitumor activity in rats bearing MV-4-11 xenografts; type: in vivo; settings: 32 mg/kg intravenously for 5 consecutive days
Procedure: as §1, with “mice[48].” for “mice[48]. Mice were transplanted with the cells through the tail vein and the treatment with TAS1553 was started 11 days post-implantation.”
as §2, with “The animals were randomized and administered with the compound for 14 days.” left out

[6] = target: T4, 6x His-tagged recombinant human R1 (RRM1) (human, UniProt P23921 1-792); assay: fluorescence polarisation; competition: 10 nmol/L TAMRA-P7 probe, 32 ng/mL His-R1, with or without test compound; 50 mmol/L Tris-Cl pH 8.0, 10 mmol/L DTT, 1% DMSO; 120 min, room temperature; settings: both partners purified
T4 construct: also called His-R1; hRRM1
T4 sequence (looked up): T1 sequence (P23921 1-792)

[7] = target: T4, 6x His-tagged recombinant human R1 …; assay: AlphaScreen or HTRF; AlphaLISA: 4.3 ug/mL His-R1 (Nickel Chelate Acceptor beads), 3.3 ug/mL GST-R2 (Glutathione Donor beads), with or without test compound; 50 mmol/L HEPES, 4 mmol/L magnesium acetate, 100 mmol/L KCl, 6 mmol/L DTT, 2 mmol/L ATP, 0.24 mmol/L NADPH, 0.010 mmol/L CDP, 0.1 vol% polysorbate 20, 1 vol% DMSO; 60 min, room temperature; settings: both partners purified
[8] = CDP to dCDP, mean ± SD, read-out: Enzyme IC50

## NC(=S)N/N=C/c1ncccc1N [3-AP, Triapine]
[1]; [8]
  IC50: 0.364 ± 0.106 µM

## O=C(Nc1nc(-c2ccc(O)c(O)c2)c(-c2ccccc2)s1)c1ccc(O)c(O)c1 [COH29]
[1]; [8]
  IC50: 6.76 ± 0.71 µM

## CN(C)c1cccc2c(S(=O)(=O)N[C@@H](Cc3ccccc3)C(=O)O)cccc12 [Dansyl-L-phenyl alanine, reference compound]
[2]
  IC50: 3340 ± 540 µM

## O=C(N[C@@H](Cc1ccccc1)C(=O)O)OCC1c2ccccc2-c2ccccc21 [Fmoc-L-phenylalanine, reference compound]
[2]
  IC50: 934 ± 35 µM

## NC(=O)NO [HU, Hydroxyurea, reference compound]
[3]
  IC50: > 1000 µM
[1]; [8]
  IC50: 188 ± 32 µM

## CCCCCOC(=O)Nc1nc(=O)n([C@@H]2O[C@H](C)[C@@H](O)[C@H]2O)cc1F [capecitabine]
[4]; 539 mg/kg oral once daily for 14 days (maximum tolerated dose)
  T/C ratio: 67.9%

## C[C@H](c1cccc2ccccc12)[C@H](NS(=O)(=O)c1ccc(Br)cc1)c1n[nH]c(=O)o1 [compound 1, 4-bromo-N-[(1S,2R)-2-(naphthalen-1-yl)-1-(5-oxo-4,5-dihydro-1,3,4-oxadiazol-2-yl)propyl]benzenesulfonamide]
[2]; FP binding IC50 ratio
  potency relative to Fmoc-L-phenylalanine (binding inhibition): ~ 2000 fold
[2]
  IC50: 0.527 ± 0.021 µM

## Nc1ccn([C@@H]2O[C@H](CO)[C@@H](O)[C@@H]2O)c(=O)n1 [cytarabine, reference compound]
[5]
  T/C ratio: 77.4%

## CC(=O)O[C@H]1C(=O)[C@@]2(C)[C@H]([C@H](OC(=O)c3ccccc3)[C@]3(O)C[C@H](OC(=O)[C@H](O)[C@@H](NC(=O)c4ccccc4)c4ccccc4)C(C)=C1C3(C)C)[C@]1(OC(C)=O)CO[C@@H]1C[C@@H]2O [paclitaxel]
[4]; 20 mg/kg intravenously once a week
  T/C ratio: 63.6%

## Ac-FTLDADF [P7, N-AcFTLDADF]
[1]
  IC50: 14.5 ± 1 µM

B1: P7 heptapeptide (N-AcFTLDADF) (peptide)
peptide: Ac-FTLDADF
notes: also called unlabeled P7; P7 peptide; source: synthetic peptide; bought: Peptide Institute, Inc
[6]
  IC50: 2.49 µM
[7]
  IC50: 9.22 µM

B2: TAMRA-labeled P7 peptide (peptide)
peptide: FTLDADF
modifications: also: TAMRA label, site not given here
notes: also called TAMRA-P7; fluorescence tagged P7; source: synthetic peptide; bought: Peptide Institute, Inc
[6]
  binding result: binds
